# Measured values from patent US4276890A, “Tobacco smoking inhibitor” (priority 1979, dated 1981).
# Several values for one entry are separate records, joined by “and”; a condition that tells them apart may be missing. Equal values may be shown once.
# Experiments:
# [1] = Volatility and storage stability; format: physicochemical
# Method: The troches were made essentially by conventional candy making techniques. The polysaccharide and starch were first dry blended to substantial uniformity. About 3-4% by weight of water was added to the dry powder to form a thick paste. This paste was then heated to produce a uniform viscous melt. Maltol or ethyl maltol were added to this melt as saturated solutions in boiling water. The water solubility of the gamma pyrones is somewhat limited. For example, one gram of ethyl maltol requires 6 ml of water at 100° C. to dissolve completely. Since the water content of the mixture must be kept low, the amount of ethyl maltol which can be incorporated is about 3-4%, and preferably about 1% by weight of the troche. […] Alternatively, the entire process can be carried out in a suitable pressure apparatus.
# A refined, bland chewing gum base, obtained from Adams Sour Apple gum, (Warner-Lambert, Inc., Morris Plains, N.J.) was heated to 45° C. in a 100 gram batch. Ethyl maltol, 300 to 400 mesh, 6.66 grams, was added to the chewing gum base with thorough mixing to provide an even distribution of particles throughout the mass. The mass was then rolled into individual 3 gram sticks and allowed to cool. Alternatively, the mass was rolled as a single thin rectangular slab, allowed to cool, then cut into 3 gram sticks. […] Each 3 gram stick contains 200 mg of ethyl maltol.
# [2] = tested on: smoking level of smokers; assay: Daily rates of smoking reduction (Example 5, Table II; comparison with placebo groups of Example 6); format: in vivo, human (volunteer smokers); conditions: for reduction in smoking level: 1,000 mg/day, eight slowly dissolving lozenges, individual subjects
# Method: Subjects who participated had prior knowledge of the purported effect of the treatment. They were asked to test a new dosage form and told that a "cure" was not necessarily to be expected in this test. The dosage was 1,000 mg/day of ethyl maltol divided over eight pieces of slowly dissolving lozenges, made essentially as described supra. Subjects administered their own dosage without supervision. The tests were designed and supervised by the inventor but carried out by intermediaries, in order to maximize the opportunity for objective evaluation of symptoms, and to minimize any possibility of investigative bias influencing the results. (True double blind tests are impossible because the gamma pyrone flavor is distinctive and virtually impossible to mask). Subjects were all in generally good health, and were selected to represent a variety of ages, occupational stresses, and personal life styles.
# Levels of tobacco consumption were calculated taking into account the number of cigarettes smoked and the proportions smoked. They are expressed as percent reduction from the pretest smoking level.
# During the same time period that the studies in Example Five were conducted, two groups of smokers were administered a placebo dosage comprising the same basic candy lozenge, but lacking any gamma pyrone and containing ascorbic and citric acids to impart a sharp, medicinal flavor.
# This conclusion is further substantiated by analysis of variance. For such analysis, individual tests that were either incomplete or which presented unusual circumstances were discarded. Results from placebo groups one and two were pooled. The average percent reduction in smoking is plotted in FIG. 1, for the treatment and the placebo groups.
# [3] = tested on: tobacco consumption of habitual smokers; assay: General observations of treatment on tobacco consumption and subjective effects; format: in vivo, human (test subjects
# Text: In a preferred embodiment, finely divided ethyl maltol is distributed in a chewing gum base, which when chewed by the subject, results in a gradual release of ethyl maltol into the oral cavity. When administered in appropriate amounts over a period of several days, there results a gradual decrease in the number of cigarettes smoked and the length of time they are smoked. […] Reductions in the frequency and quantity of smoking have been observed in test subjects who were unaware that their smoking behavior was monitored. […] Subjectively, test subjects experience a reduced desired to smoke, tend to neglect the opportunities to light up a cigarette and tend to leave cigarettes unsmoked in the ashtray after a few puffs. The effect is sufficiently subtle that a smoker is sometimes unaware that their tobacco consumption rate was decreased until such point as the lowered consumption rate becomes obvious. For smokers sincerely desiring to reduce or eliminate their smoking, the effect of the treatment is most gratifying. However, for smokers who are not psychologically committed to giving up smoking, the effects may be alarming. It is of course, possible to override the effects of the treatment by conscious effort to smoke at the pre-treatment rate.
# Smoking behavior is complex and includes cigarette, pipe and cigar smoking. Both from the standpoint of habituation and of health hazard, cigarette smoking is considered to be the most serious. It is contemplated that the treatment method described herein will be effective to inhibit all forms of smoking behavior and combinations thereof, involving the consumption of tobacco. For convenience, the ensuing discussion focuses on cigarette smoking, as exemplary of smoking behavior in general. Tobacco consumption is a function the number of cigarettes smoked and the proportion of each cigarette smoked. Reduction of consumption is measured by comparison with a smoker's pretreatment consumption rate. All data used herein are expressed as percent reduction, i.e., the differential between pretreatment and current smoking consumption rate divided by the pretreatment rate, times 100. All rates are calculated to take into account both the number of cigarettes smoked and the proportion of each smoked.
# Duration of treatment may be as little as ten days, preferably 20 to 30 days. As might be expected with a complex behavior such as smoking, where psychological and social factors play a major role in addition to individual variations in nicotine susceptibility and responsiveness to gamma pyrone, the rate of smoking reduction during treatment is highly variable. Typically, a gradual reduction to about 50% to the pretreatment rate is observed over the first four to six days. Frequently, little or no reduction is observed for the first two days, although occasionally a dramatic reduction is observed almost immediately. In the ensuing seven to ten days, further reductions, typically 70 to 100%, are observed. Reduction below the 50% level in the first 3-5 days is sometimes accompanied by the physiological (but not psychological) symptoms of nicotine withdrawl, such as vertigo, alimentary distress, diuresis, scotoma and disorientation. Such symptoms have never been observed in non-smoking control subjects using the same gamma pyrone dosages. […] The entire course of treatment is therefore extended somewhat, preferably to about 20 to 30 days total. […]
# [4] = tested on: spontaneous motor activity; conditions: mice; relative to maltol; cited from earlier work
compound,measurement,setting,value
"CCc1occc(=O)c1O [ethyl maltol, 3-hydroxy-2-ethyl-4-pyrone]",volatility,[1]; especially at elevated temperatures,"volatile, especially at elevated temperatures"
same,storage loss,"[1]; unwrapped gum, room temperature",storage loss of ethyl maltol due to sublimation at room temperature
same,reduction in smoking level,[2]; Day 1,10%
same,reduction in smoking level,[2]; Day 2,5% and 15% and 10% and 30% and 20%
same,reduction in smoking level,[2]; Day 3,10% and 20% and 5% and 40% and 60% and 30% and 15% and 45%
same,reduction in smoking level,[2]; Day 4,40% and 50% and 10% and 65% and 5% and 75% and 70% and 30%
same,reduction in smoking level,[2]; Day 5,30% and 80% and 10% and 85% and 60% and 90% and 50% and 35% and 95%
same,reduction in smoking level,[2]; Day 6,60% and 95% and 20% and 15% and 50% and 70% and 25%
same,reduction in smoking level,[2]; Day 7,50% and 40% and 20% and 90% and 65% and 85% and 30% and 45%
same,reduction in smoking level,[2]; Day 8,70% and 55% and 40% and 75% and 15% and 90% and 50%
same,reduction in smoking level,[2]; Day 9,80% and 70% and 20% and 65% and 95% and 90%
same,reduction in smoking level,[2]; Day 10,85% and 90% and 30% and 70% and 80%
same,discontinuation,"[2]; subject 10, after day 5, ""beer tasted funny""",Discontinued
same,tobacco consumption of habitual smokers,[3]; appropriate dosage levels and rates,significantly reduces the tobacco consumption of habitual smokers
same,onset of reduced cigarette consumption,[3]; day of treatment,about the second or third day of treatment
same,symptoms of nicotine withdrawal,[3]; treatment over several days,does not appear to be accompanied by the typical symptoms of nicotine withdrawal
same,spontaneous motor activity (in words),[4],"also inhibitory, but somewhat less potent"
